Experimental data published in the supplement of paper PMC4862054.

Legend:
Test in all cases: normalised viability (% of control), CellTiter-Blue; higher = more viable cells (about 100 = DMSO control)
Details in all cases: incubation time: 72 h
CAL-85-1 [1] = system: CAL-85-1
Procedure: (§1)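 DSRT, CellTiter-Blue viability, 72 h incubation. Signal is normalised to DMSO and benzethonium chloride controls. Value is the normalised response at dose 7.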

DU-4475 [2] = system: DU-4475
Procedure: as §1

HDQ-P1 [3] = system: HDQ-P1
Procedure: as §1

MDA-MB-453 [4] = system: MDA-MB-453
Procedure: as §1

CAL-51 [5] = system: CAL-51
Procedure: as §1

CAL-148 [6] = system: CAL-148
Procedure: as §1

CAL-85-1 [7] = system: CAL-85-1; remark: listed apart in the source
Procedure: (§2)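 DSRT, CellTiter-Blue viability, 72 h incubation. Signal is normalised to DMSO and benzethonium chloride controls. Value is the normalised response at dose 9.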

DU-4475 [8] = system: DU-4475; remark: listed apart in the source
Procedure: as §2

HDQ-P1 [9] = system: HDQ-P1; remark: listed apart in the source
Procedure: as §2

MDA-MB-453 [10] = system: MDA-MB-453; remark: listed apart in the source
Procedure: as §2

CAL-51 [11] = system: CAL-51; remark: listed apart in the source
Procedure: as §2

CAL-148 [12] = system: CAL-148; remark: listed apart in the source
Procedure: as §2

CAL-85-1 [13] = system: CAL-85-1; remark: listed apart in the source
Procedure: (§3)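 DSRT, CellTiter-Blue viability, 72 h incubation. Signal is normalised to DMSO and benzethonium chloride controls. Value is the normalised response at dose 6.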

DU-4475 [14] = system: DU-4475; remark: listed apart in the source
Procedure: as §3

HDQ-P1 [15] = system: HDQ-P1; remark: listed apart in the source
Procedure: as §3

MDA-MB-453 [16] = system: MDA-MB-453; remark: listed apart in the source
Procedure: as §3

CAL-51 [17] = system: CAL-51; remark: listed apart in the source
Procedure: as §3

CAL-148 [18] = system: CAL-148; remark: listed apart in the source
Procedure: as §3

`c1ccc(C2CN3CCSC3=N2)cc1` (centres undefined) [Tetramisole] (1000 nM) showed a normalised viability (CAL-85-1 [1]) of 98.7%, a normalised viability (DU-4475 [2]) of 74% and a normalised viability (HDQ-P1 [3]) of 109%. It also gave a normalised viability (MDA-MB-453 [4]) of 108%, a normalised viability (CAL-51 [5]) of 90.2% and a normalised viability (CAL-148 [6]) of 131%.

`CC[C@@]1(O)C(=O)OCc2c1cc1n(c2=O)Cc2cc3ccccc3nc2-1` [Camptothecin] (5000 nM) showed a normalised viability (CAL-85-1 [7]) of 13.9%, a normalised viability (DU-4475 [8]) of -0.07% and a normalised viability (HDQ-P1 [9]) of 24.2%. For the same compound, the normalised viability (MDA-MB-453 [10]) was 5.48%, the normalised viability (CAL-51 [11]) was 1.8% and the normalised viability (CAL-148 [12]) was 0.33%.

`O=P(O)(NCCCl)NCCCl` [Ifosfamide mustard] (1000 nM) showed a normalised viability (CAL-85-1 [1]) of 89.4%, a normalised viability (DU-4475 [2]) of 112% and a normalised viability (HDQ-P1 [3]) of 119%. The normalised viability (MDA-MB-453 [4]) was 104%, the normalised viability (CAL-51 [5]) was 107% and the normalised viability (CAL-148 [6]) was 111%.

Compound `COC(=O)C[C@](O)(CCCC(C)(C)O)C(=O)O[C@@H]1C(OC)=C[C@]23CCCN2CCc2cc4c(cc2[C@H]13)OCO4` [Omacetaxine mepesuccinate] (10000 nM) has a normalised viability (CAL-85-1 [7]) of 2.22%, a normalised viability (DU-4475 [8]) of 1.55% and a normalised viability (HDQ-P1 [9]) of 15.2%. The normalised viability (MDA-MB-453 [10]) was 2.46%, the normalised viability (CAL-51 [11]) was 3.97% and the normalised viability (CAL-148 [12]) was 5.68%.

`O=c1[nH]cc(F)c(=O)[nH]1` [Fluorouracil] (300 nM) showed a normalised viability (CAL-85-1 [13]) of 87.2%, a normalised viability (DU-4475 [14]) of 102% and a normalised viability (HDQ-P1 [15]) of 87.2%. It also gave a normalised viability (MDA-MB-453 [16]) of 85.7%, a normalised viability (CAL-51 [17]) of 101% and a normalised viability (CAL-148 [18]) of 96.7%.

With `CC(=O)O[C@H]1C(=O)[C@@]2(C)[C@H]([C@H](OC(=O)c3ccccc3)[C@]3(O)C[C@H](OC(=O)[C@H](O)[C@@H](NC(=O)c4ccccc4)c4ccccc4)C(C)=C1C3(C)C)[C@]1(OC(C)=O)CO[C@@H]1C[C@@H]2O` [Paclitaxel] (30 nM) the normalised viability (CAL-85-1 [13]) was 32.6%, the normalised viability (DU-4475 [14]) was 39.6% and the normalised viability (HDQ-P1 [15]) was 33.7%. The normalised viability (MDA-MB-453 [16]) was 26.1%, the normalised viability (CAL-51 [17]) was 38.8% and the normalised viability (CAL-148 [18]) was 20.8%.

`CN1CCN(c2ccc3nc(-c4c(N)c5c(F)cccc5[nH]c4=O)[nH]c3c2)CC1` [Dovitinib] (300 nM) was tested, and the normalised viability (CAL-85-1 [13]) was 86.9%, the normalised viability (DU-4475 [14]) was 86.5% and the normalised viability (HDQ-P1 [15]) was 54.7%. The normalised viability (MDA-MB-453 [16]) was 94.5%, the normalised viability (CAL-51 [17]) was 109% and the normalised viability (CAL-148 [18]) was 98.7%.

For `CC(C)C[C@H](NC(=O)[C@H](Cc1ccccc1)NC(=O)c1cnccn1)B(O)O` [Bortezomib] (30 nM), the normalised viability (CAL-85-1 [13]) was 7.63%, the normalised viability (DU-4475 [14]) was 9.69% and the normalised viability (HDQ-P1 [15]) was 2.53%. The normalised viability (MDA-MB-453 [16]) was 24%, the normalised viability (CAL-51 [17]) was 67.6% and the normalised viability (CAL-148 [18]) was 41%.

Work on `COc1cc(Nc2ncc(F)c(Nc3ccc4c(n3)NC(=O)C(C)(C)O4)n2)cc(OC)c1OC` [R406] (300 nM) yielded a normalised viability (CAL-85-1 [13]) of 98.3%, a normalised viability (DU-4475 [14]) of 87.5% and a normalised viability (HDQ-P1 [15]) of 102%. It also gave a normalised viability (MDA-MB-453 [16]) of 109%, a normalised viability (CAL-51 [17]) of 114% and a normalised viability (CAL-148 [18]) of 108%.

`O=c1[nH]c(=O)n([C@H]2C[C@H](O)[C@@H](CO)O2)cc1F` [Floxuridine] (300 nM) gave a normalised viability (CAL-85-1 [13]) of 58.7%, a normalised viability (DU-4475 [14]) of 76% and a normalised viability (HDQ-P1 [15]) of 78.8%. For the same compound, the normalised viability (MDA-MB-453 [16]) was 90.8%, the normalised viability (CAL-51 [17]) was 35% and the normalised viability (CAL-148 [18]) was 55.2%.

`c1ccc(C2CN3CCSC3=N2)cc1` (centres undefined) [Tetramisole] (300 nM) showed a normalised viability (CAL-85-1 [13]) of 102%, a normalised viability (DU-4475 [14]) of 98.6% and a normalised viability (HDQ-P1 [15]) of 129%. It also gave a normalised viability (MDA-MB-453 [16]) of 103%, a normalised viability (CAL-51 [17]) of 93.3% and a normalised viability (CAL-148 [18]) of 102%.

Work on `CC(C)(C)c1cc(NC(=O)Nc2ccc(-c3cn4c(n3)sc3cc(OCCN5CCOCC5)ccc34)cc2)no1` [Quizartinib] (30 nM) yielded a normalised viability (CAL-85-1 [13]) of 97.2%, a normalised viability (DU-4475 [14]) of 109% and a normalised viability (HDQ-P1 [15]) of 53.4%. The normalised viability (MDA-MB-453 [16]) was 102%, the normalised viability (CAL-51 [17]) was 101% and the normalised viability (CAL-148 [18]) was 103%.

Compound `COC(=O)C[C@](O)(CCCC(C)(C)O)C(=O)O[C@@H]1C(OC)=C[C@]23CCCN2CCc2cc4c(cc2[C@H]13)OCO4` [Omacetaxine mepesuccinate] (1000 nM) has a normalised viability (CAL-85-1 [1]) of 3.04%, a normalised viability (DU-4475 [2]) of 9.53% and a normalised viability (HDQ-P1 [3]) of 13.1%. The normalised viability (MDA-MB-453 [4]) was 15.1%, the normalised viability (CAL-51 [5]) was 4.98% and the normalised viability (CAL-148 [6]) was 12.4%.

`COC1=CC(c2cc3ccccc3[nH]2)=N/C1=C\c1[nH]c(C)cc1C` [Obatoclax] (300 nM) showed a normalised viability (CAL-85-1 [13]) of 66.2%, a normalised viability (DU-4475 [14]) of 75% and a normalised viability (HDQ-P1 [15]) of 40.7%. For the same compound, the normalised viability (MDA-MB-453 [16]) was 72.2%, the normalised viability (CAL-51 [17]) was 95.7% and the normalised viability (CAL-148 [18]) was 91.1%.
